This is an account of results in patent US12331022B2, “Spiropiperidine allosteric modulators of nicotinic acetylcholine receptors” (Merck Sharp & Dohme LLC, priority 2019, dated 2025).

Read-outs that look alike come from different tables or passages of the source. Bounds are passed on as bounds.

The assay addresses T1, human α7 nAChR (Homo sapiens, UniProt P36544).
T1 construct: host or cells: HEK
Description: Automated patch-clamp electrophysiology functional assay (Assay A). The assay is classed as cell-based. To be noted: HEK cell line stably expressing human RIC-3 and human α7, IonFlux HT whole-cell population patch, with or without 40 μM acetylcholine. The method, then: The α7 nAChR positive allosteric modulator (PAM) activity of the present compounds may be tested using assays known in the art. The α7 nAChR PAMs described herein have activities in an automated patch-clamp electrophysiology functional assay as described in the examples. The assay was performed using the IonFlux HT in a whole-cell, population patch configuration. See Golden et al. Assay Drug Dev. Technol. (2011) 9:608-619. The compounds were assessed for their ability to modulate the function of the human α7 nAChR stably expressed in a HEK cell line both in the presence, and in the absence of the natural α7 agonist acetylcholine. By performing a series of such measurements at different concentrations, the effective concentration of the α7 nAChR PAMs (EC50) was determined. See Spencer et al. Assay Drug Dev. Technol. (2012) 10:313-324.
Direct activation of α7 (agonism), and potentiation of acetylcholine-evoked α7 currents was determined as follows:
Automated patch-clamp electrophysiology was performed using the IonFlux HT (Fluxion Biosciences Inc., San Francisco, CA) in the whole-cell, population patch configuration. Test compounds were assessed for their ability to modulate the function of the α7 nicotinic acetylcholine receptor both in the presence, and in the absence of the natural α7 agonist acetylcholine. A HEK cell line stably expressing both human RIC-3 and human α7 (PrecisION hnAChR α7/RIC-3, Eurofins Pharma, St. Charles, MO) was cultured in 175 cm^2 triple-layer tissue culture flasks to no more than 90% confluency in DMEM/F-12 growth media supplemented with 10% heat-inactivated fetal bovine serum, 1% non-essential amino acids, 0.625 μg/mL Puromycin, and 400 μg/mL Geneticin. Immediately prior to assay, cells were detached by first aspirating growth media, rinsing with Dulbecco's phosphate buffered saline, and then adding 10 mL of Accutase (Innovative Cell Technologies, San Diego, CA) to the flask and then incubating at 37° C. for 5 minutes. Detached cells were then recovered by the addition of 40 mL of CHO-serum-free media supplemented with 25 mM HEPES, and rocked gently in a 50 mL conical tube for 20 minutes prior to patch-clamp assay. After recovery, cells were pelleted by centrifugation at 1,000 RPM for 1 minute in a compact bench top centrifuge; recovery media was aspirated and cells were resuspended in external recording solution (150 mM NaCl, 5 mM KCl, 2 mM CaCl2, 1 mM MgCl2, 10 mM HEPES, 12 mM dextrose) to a density of 5.0×10^6 cells/mL. The cell suspension was added to the cell inlet wells on an IonFlux HT population patch plate which had previously been rinsed and primed with deionized H2O. Test compounds were serially diluted in DMSO and then resuspended to the final test concentration in external recording solution, with, or without 40 μM acetylcholine added to the external recording solution; test compounds were then transferred to the IonFlux HT population patch plate. Internal recording solution (110 mM TrisPO4, 28 mM TrisBase, 0.1 mM CaCl2, 2 mM MgCl2, 11 mM EGTA, 4 mM MgATP) was added to the internal recording solution inlet wells on the IonFlux HT patch plate previously loaded with cells and test compounds, and the plate loaded into the IonFlux HT instrument. A protocol was executed on the IonFlux HT to trap the cells, break into the cells, and establish the whole-cell recording configuration; cells were voltage-clamped at a holding potential of −60 mV for the duration of the experiment, all experiments were conducted at room temperature, and the IonFlux HT injection pressure was 8 psi for solution applications. Upon establishing the whole-cell configuration, external recording solution was perfused into the recording chambers for 120 seconds and then 40 μM acetylcholine was applied for 1 second and immediately washed off with external recording solution for 60 seconds. […]
For orientation: In patch-clamp work, channel activity is measured electrically.

T1 sequence (P36544 23-502): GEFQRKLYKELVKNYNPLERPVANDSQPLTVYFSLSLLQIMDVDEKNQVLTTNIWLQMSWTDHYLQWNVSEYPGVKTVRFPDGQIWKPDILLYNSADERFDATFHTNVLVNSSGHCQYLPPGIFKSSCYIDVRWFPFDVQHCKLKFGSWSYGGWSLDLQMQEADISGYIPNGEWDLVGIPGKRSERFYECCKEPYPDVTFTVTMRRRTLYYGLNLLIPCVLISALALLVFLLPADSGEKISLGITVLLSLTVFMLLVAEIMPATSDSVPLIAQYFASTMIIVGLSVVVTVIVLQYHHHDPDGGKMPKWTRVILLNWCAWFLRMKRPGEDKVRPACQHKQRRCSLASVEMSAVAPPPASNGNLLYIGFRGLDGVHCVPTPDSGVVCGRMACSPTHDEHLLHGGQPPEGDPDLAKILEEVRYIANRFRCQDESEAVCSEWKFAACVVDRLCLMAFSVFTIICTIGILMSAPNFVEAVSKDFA

`COc1cc(OC[C@@H]2CC23CCN(S(N)(=O)=O)CC3)ccc1F` [Example A4, (1R)-1-[(4-fluoro-3-methoxyphenoxy)methyl]-6-azaspiro[2.5]octane-6-sulfonamide]: the EC50 (read-out: α7 nAChR Potency) lay in the range of 500 to 5000 nM.

Take `COc1cc(F)ccc1OC[C@@H]1CC12CCN(S(N)(=O)=O)CC2` [Example A6, (1R)-1-[(4-fluoro-2-methoxyphenoxy)methyl]-6-azaspiro[2.5]octane-6-sulfonamide]: the EC50 (read-out: α7 nAChR EC50) amounted to 940 nM and the EC50 (read-out: α7 nAChR Potency) lay within 500 to 5000 nM.

Regarding `Cc1cc(C)n(-c2cccc(OC[C@H]3CC34CCN(S(N)(=O)=O)CC4)n2)n1` [Example A20, (1S)-1-({[6-(3,5-dimethyl-1H-pyrazol-1-yl)pyridin-2-yl]oxy}methyl)-6-azaspiro[2.5]octane-6-sulfonamide], the EC50 is 1800 nM (read-out: α7 nAChR EC50) and 500 to 5000 nM (read-out: α7 nAChR Potency).

Regarding `NS(=O)(=O)N1CCC2(CC1)CC2COc1ccnc(C(F)(F)F)c1` (centres unmarked) [Example 5, 1-({[2-(Trifluoromethyl)pyridin-4-yl]oxy}methyl)-6-azaspiro[2.5]octane-6-sulfonamide], the EC50 by setting is: (read-out: α7 nAChR EC50) 3200 nM; (read-out: α7 nAChR Potency) 500 to 5000 nM.

Regarding `Cc1cccc(OC[C@@H]2CC23CCN(S(N)(=O)=O)CC3)n1` [Example A48, (1R)-1-{[(6-methylpyridin-2-yl)oxy]methyl}-6-azaspiro[2.5]octane-6-sulfonamide], the EC50 (read-out: α7 nAChR EC50) stood at 1700 nM and the EC50 (read-out: α7 nAChR Potency) lay in the range of 500 to 5000 nM.

As to `COc1ccc(Cl)cc1NC(=O)[C@@H]1CC12CCN(S(N)(=O)=O)CC2` [Example 13, (1R)—N-(5-Chloro-2-methoxyphenyl)-6-sulfamoyl-6-azaspiro[2.5]octane-1-carboxamide], the EC50 is 200 nM (read-out: α7 nAChR EC50) and 100 to 500 nM (read-out: α7 nAChR Potency).

Turning to `CC(C)c1cccc(OC[C@@H]2CC23CCN(S(N)(=O)=O)CC3)n1` [Example A53, (1R)-1-({[6-(propan-2-yl)pyridin-2-yl]oxy}methyl)-6-azaspiro[2.5]octane-6-sulfonamide], the EC50 is 640 nM (read-out: α7 nAChR EC50) and 500 to 5000 nM (read-out: α7 nAChR Potency).

`COc1ccc(Cl)cc1OCC1CC12CCN(S(N)(=O)=O)CC2` (racemic) [Example A42, 1-[(5-chloro-2-methoxyphenoxy)methyl]-6-azaspiro[2.5]octane-6-sulfonamide]: the EC50 was 120 nM (read-out: α7 nAChR EC50) and 100 to 500 nM (read-out: α7 nAChR Potency).

Regarding `COc1cccc(OCC2CC23CCN(S(N)(=O)=O)CC3)n1` (racemic) [Example A27, 1-{[(6-methoxypyridin-2-yl)oxy]methyl}-6-azaspiro[2.5]octane-6-sulfonamide], the EC50 (read-out: α7 nAChR Potency) lay in the range of 500 to 5000 nM.

Take `NS(=O)(=O)N1CCC2(CC1)C[C@H]2COc1cccnc1OCC(F)(F)F` [Example 8, (1R)-1-({[2-(2,2,2-Trifluoroethoxy)pyridin-3-yl]oxy}methyl)-6-azaspiro[2.5]octane-6-sulfonamide]: the EC50 (read-out: α7 nAChR EC50) stood at 1200 nM and the EC50 (read-out: α7 nAChR Potency) was 500 to 5000 nM.

As for `NS(=O)(=O)N1CCC2(CC1)C(COc1cccc(OCC(F)(F)F)n1)C2(F)F` (single isomer, unassigned) [Example A40, 1,1-difluoro-2-({[6-(2,2,2-trifluoroethoxy)pyridin-2-yl]oxy}methyl)-6-azaspiro[2.5]octane-6-sulfonamide], the EC50 runs as follows: (read-out: α7 nAChR EC50) 19 nM; (read-out: α7 nAChR Potency) at most 100 nM.

For the molecule `N#Cc1cccc(OC[C@@H]2CC23CCN(S(N)(=O)=O)CC3)n1` [Example A47, (1R)-1-{[(6-cyanopyridin-2-yl)oxy]methyl}-6-azaspiro[2.5]octane-6-sulfonamide], the EC50 is 1100 nM (read-out: α7 nAChR EC50) and 500 to 5000 nM (read-out: α7 nAChR Potency).

As for `NS(=O)(=O)N1CCC2(CC1)C[C@H]2COc1cccc(C2CC2)n1` [Example A49], the EC50 by setting is: (read-out: α7 nAChR EC50) 280 nM; (read-out: α7 nAChR Potency) 100 to 500 nM.

In the case of `COc1ccc(OC[C@@H]2CC23CCN(S(N)(=O)=O)CC3)c(OC)n1` [Example A1, (1R)-1-{[(2,6-dimethoxypyridin-3-yl)oxy]methyl}-6-azaspiro[2.5]octane-6-sulfonamide], the EC50 (read-out: α7 nAChR EC50) was found to be 6200 nM and the EC50 (read-out: α7 nAChR Potency) was in the range of 5000 to 50000 nM.

Take `NS(=O)(=O)N1CCC2(CC1)CC2COc1cccc(OCC(F)(F)F)c1` (centres unmarked) [Example 7, 1-{[3-(2,2,2-Trifuoroethoxy)phenoxy]methyl}-6-azaspiro[2.5]octane-6-sulfonamide]: the EC50 is, setting by setting: (read-out: α7 nAChR EC50) 330 nM; (read-out: α7 nAChR Potency) 100 to 500 nM.

For the molecule `CC(F)(F)c1cccc(OC[C@@H]2CC23CCN(S(N)(=O)=O)CC3)n1` [Example A56, (1R)-1-({[6-(1,1-difluoroethyl)pyridin-2-yl]oxy}methyl)-6-azaspiro[2.5]octane-6-sulfonamide], the EC50 runs as follows: (read-out: α7 nAChR EC50) 740 nM; (read-out: α7 nAChR Potency) 500 to 5000 nM.

`NS(=O)(=O)N1CCC2(CC1)C(CSc1ccc(C(F)(F)F)cc1)C2(F)F` (single isomer, unassigned) [Example A44, 1,1-difluoro-2-({[4-(trifluoromethyl)phenyl]sulfanyl}methyl)-6-azaspiro[2.5]octane-6-sulfonamide]: the EC50 is 150 nM (read-out: α7 nAChR EC50) and 100 to 500 nM (read-out: α7 nAChR Potency).

Turning to `NS(=O)(=O)N1CCC2(CC2COc2cccc(OCC(F)(F)F)n2)C(F)(F)C1` (racemic) [Example A39, 4,4-difluoro-1-({[6-(2,2,2-trifluoroethoxy)pyridin-2-yl]oxy}methyl)-6-azaspiro[2.5]octane-6-sulfonamide], the EC50 (read-out: α7 nAChR EC50) was 310 nM and the EC50 (read-out: α7 nAChR Potency) lay in the range of 100 to 500 nM.

Regarding `NS(=O)(=O)N1CCC2(CC1)C(CCc1ccc(F)cc1C(F)(F)F)C2(F)F` (centres unmarked) [Example 18, 1,1-Difluoro-2-{2-[4-fluoro-2-(trifluoromethyl)phenyl]ethyl}-6-azaspiro[2.5]octane-6-sulfonamide], the EC50 (read-out: α7 nAChR Potency) was 5000 to 50000 nM.

Regarding `COc1ccc(F)c(OCC2C(F)(F)C23CCN(S(N)(=O)=O)CC3)c1` (single isomer, unassigned) [Example A31, 1,1-difluoro-2-[(2-fluoro-5-methoxyphenoxy)methyl]-6-azaspiro[2.5]octane-6-sulfonamide], the EC50 (read-out: α7 nAChR Potency) was at most 100 nM.

Turning to `NS(=O)(=O)N1CCC2(CC1)C(CSc1nnnn1-c1ccccc1)C2(F)F` (single isomer, unassigned) [Example A62, 1,1-difluoro-2-{[(1-phenyl-1H-tetrazol-5-yl)sulfanyl]methyl}-6-azaspiro[2.5]octane-6-sulfonamide], the EC50 (read-out: α7 nAChR EC50) is 2000 nM and the EC50 (read-out: α7 nAChR Potency) fell in the range of 500 to 5000 nM.

As to `NS(=O)(=O)N1CCC2(CC1)C(COc1ccnc(OC(F)F)c1)C2(F)F` (single isomer, unassigned) [Example 2, 2-({[2-(Difluoromethoxy)pyridin-4-yl]oxy}methyl)-1,1-difluoro-6-azaspiro[2.5]octane-6-sulfonamide], the EC50 runs as follows: (read-out: α7 nAChR EC50) 71 nM; (read-out: α7 nAChR Potency) at most 100 nM.

For `NS(=O)(=O)N1CCC2(CC1)C[C@@H]2COc1cccc(OCC2CC2)n1` [Example A18, (1S)-1-({[6-(cyclopropylmethoxy)pyridin-2-yl]oxy}methyl)-6-azaspiro[2.5]octane-6-sulfonamide], the EC50 is 300 nM (read-out: α7 nAChR EC50) and 100 to 500 nM (read-out: α7 nAChR Potency).

Take `COc1cccc(OC[C@@H]2CC23CCN(S(N)(=O)=O)CC3)n1` [Example A51, (1R)-1-{[(6-methoxypyridin-2-yl)oxy]methyl}-6-azaspiro[2.5]octane-6-sulfonamide]: the EC50 was 570 nM (read-out: α7 nAChR EC50) and 500 to 5000 nM (read-out: α7 nAChR Potency).
